Experiments:
PDE3 = PDE3 inhibitory activity; format: biochemical; details: in the same concentration (as the PDE4 IC50, 12 nM or less)
Description: (§1) A concentration of test compound which inhibits 50% of the metabolic activity of PDE4 was defined as IC50 and calculated for each compound. By applying the above test method and the method described in WO 97/19078, inhibitory activity against PDE1, PDE2, PDE3 and PDE5 was measured similarly.

PDE1 = PDE1 inhibitory activity; format: biochemical; details: in the same concentration (as the PDE4 IC50, 12 nM or less)
Description: as §1

PDE2 = PDE2 (Homo sapiens, UniProt O00408); experiment: PDE2 inhibitory activity; format: biochemical; details: in the same concentration (as the PDE4 IC50, 12 nM or less)
Sequence of PDE2 (O00408 whole entry): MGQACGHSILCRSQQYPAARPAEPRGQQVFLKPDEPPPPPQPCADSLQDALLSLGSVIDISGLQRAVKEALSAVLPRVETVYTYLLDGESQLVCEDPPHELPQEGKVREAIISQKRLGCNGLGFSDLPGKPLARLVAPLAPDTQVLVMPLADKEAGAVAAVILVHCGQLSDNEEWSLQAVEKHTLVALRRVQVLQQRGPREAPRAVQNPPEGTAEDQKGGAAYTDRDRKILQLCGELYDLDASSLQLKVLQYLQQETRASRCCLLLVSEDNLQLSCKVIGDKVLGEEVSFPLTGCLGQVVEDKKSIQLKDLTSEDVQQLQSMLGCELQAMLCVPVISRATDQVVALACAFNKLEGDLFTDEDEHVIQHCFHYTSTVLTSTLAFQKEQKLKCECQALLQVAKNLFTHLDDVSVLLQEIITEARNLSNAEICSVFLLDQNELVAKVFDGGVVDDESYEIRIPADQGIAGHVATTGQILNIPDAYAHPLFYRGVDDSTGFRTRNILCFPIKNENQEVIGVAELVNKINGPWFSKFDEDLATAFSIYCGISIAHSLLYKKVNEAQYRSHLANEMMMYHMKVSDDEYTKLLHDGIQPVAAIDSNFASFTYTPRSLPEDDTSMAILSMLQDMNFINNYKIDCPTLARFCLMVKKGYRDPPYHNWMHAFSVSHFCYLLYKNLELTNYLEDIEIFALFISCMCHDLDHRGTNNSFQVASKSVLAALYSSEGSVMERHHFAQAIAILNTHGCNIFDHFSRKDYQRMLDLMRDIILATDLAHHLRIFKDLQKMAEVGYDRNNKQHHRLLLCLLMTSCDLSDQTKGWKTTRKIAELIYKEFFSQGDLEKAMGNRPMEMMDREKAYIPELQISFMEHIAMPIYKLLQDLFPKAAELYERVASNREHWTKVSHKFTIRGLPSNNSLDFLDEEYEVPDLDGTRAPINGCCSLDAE
Description: as §1

PDE5 = PDE5 (Homo sapiens, UniProt O76074); experiment: PDE5 inhibitory activity; format: biochemical; details: in the same concentration (as the PDE4 IC50, 12 nM or less)
Description: as §1

| inhibitory activity against PDE2 (PDE2) | melting point [°C] | inhibitory activity against PDE5 (PDE5) | Compound | inhibitory activity against PDE3 (PDE3) | inhibitory activity against PDE1 (PDE1) |
| --- | --- | --- | --- | --- | --- |
| – | 168 to 170 | – | COc1ccc(-c2cccc(C(=O)N3CCN(c4ccc(C(C)=O)cc4)CC3)n2)cc1F [Example 115] | – | – |
| hardly exhibited inhibitory activity | 143 to 144 | hardly exhibited inhibitory activity | COc1ccc(-c2cccc(C(=O)N3CCN(c4ccc(OCCN5CCC(O)CC5)cc4)CC3)n2)cc1OC [Example 95, 1-[2-(4-{4-[6-(3,4-dimethoxyphenyl)pyridine-2-carbonyl]piperazin-1-yl}phenoxy)ethyl]piperidin-4-ol] | hardly exhibited inhibitory activity | hardly exhibited inhibitory activity |
| hardly exhibited inhibitory activity | 131 to 134 | hardly exhibited inhibitory activity | CCN(CC)CCC(=O)Nc1ccc(N2CCN(C(=O)c3cccc(-c4ccc(OC)c(OC)c4)n3)CC2)cc1 [Example 45, 3-diethylamino-4′-{4-[6-(3,4-dimethoxyphenyl)pyridine-2-carbonyl]piperazin-1-yl}propananilide] | hardly exhibited inhibitory activity | hardly exhibited inhibitory activity |
| hardly exhibited inhibitory activity | 161 to 163 | hardly exhibited inhibitory activity | COc1ccc(-c2cccc(C(=O)N3CCN(c4ccc(C(C)=O)cc4)CC3)n2)cc1OC [Example 32] | hardly exhibited inhibitory activity | hardly exhibited inhibitory activity |
| – | 168 to 170 | – | COc1ccc(-c2cccc(C(=O)N3CCN(c4ccc(C(C)=O)cc4)CC3)n2)cc1Cl [Example 113] | – | – |
| hardly exhibited inhibitory activity | 201 to 203 | hardly exhibited inhibitory activity | COc1ccc(-c2cccc(C(=O)N3CCN(c4ccc(NC(C)=O)cc4)CC3)n2)cc1OC [Example 43, 4′-{4-[6-(3,4-dimethoxyphenyl)pyridine-2-carbonyl]piperazin-1-yl}acetanilide] | hardly exhibited inhibitory activity | hardly exhibited inhibitory activity |
| – | 160 to 162 | – | COc1ccc(-c2cccc(C(=O)N3CCN(c4ccc(C(C)=O)cc4)CC3)n2)cc1OC(F)F [Example 114] | – | – |
| – | 142 to 144 | – | COc1ccc(-c2cccc(C(=O)N3CCN(c4ccc(C(C)=O)cc4)CC3)n2)cc1OCC1CC1 (hydrate or solvate) [Example 112, 1-(4-{4-[6-(3-cyclopropylmethoxy-4-methoxyphenyl)pyridine-2-carbonyl]piperazin-1-yl}phenyl)ethanone] | – | – |
| hardly exhibited inhibitory activity | – | hardly exhibited inhibitory activity | COc1ccc(-c2cccc(C(=O)N3CCN(c4ccc(C(C)=O)cc4)CC3)n2)cc1OCC1CC1 [Example 112, 1-(4-{4-[6-(3-cyclopropylmethoxy-4-methoxyphenyl)pyridine-2-carbonyl]piperazin-1-yl}phenyl)ethanone] | hardly exhibited inhibitory activity | hardly exhibited inhibitory activity |
| hardly exhibited inhibitory activity | 144 to 145 | hardly exhibited inhibitory activity | COc1ccc(-c2cccc(C(=O)N3CCN(c4cccc(Br)n4)CC3)n2)cc1OC [Example 77, 1-(6-bromo-2-pyridyl)-4-[6-(3,4-dimethoxyphenyl)pyridine-2-carbonyl]piperazine] | hardly exhibited inhibitory activity | hardly exhibited inhibitory activity |

The next lines start with the compound.

| Compound | inhibitory activity against PDE2 (PDE2) | melting point [°C] | inhibitory activity against PDE5 (PDE5) | inhibitory activity against PDE3 (PDE3) | inhibitory activity against PDE1 (PDE1) |
| --- | --- | --- | --- | --- | --- |
| COc1ccc(-c2cccc(C(=O)N3CCN(c4ccc(N5CCOCC5)cc4)CC3)n2)cc1OC [Example 15, 4-(4-{4-[6-(3,4-dimethoxyphenyl)pyridine-2-carbonyl]piperazin-1-yl)phenyl)morpholine] | hardly exhibited inhibitory activity | 129 to 130 | hardly exhibited inhibitory activity | hardly exhibited inhibitory activity | hardly exhibited inhibitory activity |
| 4-{2-[(6-{4-]6-(3,4-dimethoxyphenyl)pyridine-2-carbonyl)piperazin-1-yl}-3-pyridyl}oxylethyl)morpholine [Example 99] | hardly exhibited inhibitory activity | – | hardly exhibited inhibitory activity | hardly exhibited inhibitory activity | hardly exhibited inhibitory activity |
| COc1ccc(-c2cccc(C(=O)N3CCN(c4ccc(C(N)=O)cc4)CC3)n2)cc1OC [Example 12, 4-{4-[6-(3,4-dimethoxyphenyl)pyridine-2-carbonyl]piperazin-1-yl}benzamide] | – | 237 to 240 | – | – | – |
| COc1ccc(-c2cccc(C(=O)N3CCN(c4ccc(NS(C)(=O)=O)cc4)CC3)n2)cc1OC [Example 16, 4′-{4-[6-(3,4-dimethoxyphenyl)pyridine-2-carbonyl]piperazin-1-yl}methanesulfonanilide] | – | 168 to 170 | – | – | – |
| COc1ccc(N2CCN(C(=O)c3cccc(-c4ccc(OC)c(OC)c4)n3)CC2)cc1 [Example 2, 1-[6-(3,4-dimethoxyphenyl)pyridine-2-carbonyl]-4-(4-methoxyphenyl)piperazine] | hardly exhibited inhibitory activity | 169 to 172 | hardly exhibited inhibitory activity | hardly exhibited inhibitory activity | hardly exhibited inhibitory activity |
| COc1ccc(-c2cccc(C(=O)N3CCN(c4ccc(OCc5cc[n+]([O-])cc5)cc4)CC3)n2)cc1OC [Example 10, 1-[6-(3,4-dimethoxyphenyl)pyridine-2-carbonyl]-4-[4-(1-oxido-4-pyridylmethoxy)phenyl]piperazine] | hardly exhibited inhibitory activity | 182 to 183 | hardly exhibited inhibitory activity | hardly exhibited inhibitory activity | hardly exhibited inhibitory activity |
| COc1ccc(-c2cccc(C(=O)N3CCN(c4ccc(N)cc4)CC3)n2)cc1OC [Example 9, 1-[6-(3,4-dimethoxyphenyl)pyridine-2-carbonyl]-4-(4-aminophenyl) piperazine] | – | 164 to 165 | – | – | – |
